Reference: patent US6716850B2, “Non-nucleoside reverse transcriptase inhibitors” (Medivir AB, priority 2001, dated 2004)
Where two headings read alike, the source gives them in different places.

How the values were obtained:
HIV-1IIIB (wild type) = assay: XTT assay in MT-4 cells infected with wild type HIV-1IIIB; type: cell-based
Description: Compounds of the invention are assayed for HIV activity, for example using multiple determinations with XTT in MT-4 cells (Weislow et al, J Nat Cancer Inst 1989, vol 81 no 8, 577 et seq), preferably including determinations in the presence of 40-50% human serum to indicate the contribution of protein binding. In short the XTT assay uses human T cell line MT4 cells grown in RPMI 1640 medium supplemented with 10% fetal calf serum (or 40-50% human serum as appropriate), penicillin and streptomycin seeded into 96 well microplates (2·10^4 cells/well) infected with 10-20 TCID50 per well of HIV-1IIIB (wild type) or mutant virus, such as those bearing RT lie 100, Cys 181 or Asn 103 mutations. Serially diluted test compounds are added to respective wells and the culture incubated at 37° C. in a CO2 enriched atmosphere and the viability of cells is determined at day five or six with XTT vital dye. Results are typically presented as ED50 μM.

[1] = target: T1, HIV-1 reverse transcriptase (Human immunodeficiency virus type 1 group M subtype B, UniProt P04585); assay: activity of separated optical isomers (test not stated); settings: second eluting peak on chiral AGP column
T1 construct: active against reverse transcriptase, especially that of HIV-1

[2] = XTT assay, MT-4 cells, wild type HIV-1IIIB, read-out: ED50 (the source's name)
[3] = Human immunodeficiency virus 1, MT4, read-out: ED50

(+/−)-cis-1-(5-Bromo-pyridin-2-yl)-3-(4,7-difluoro-1,1a,2,7b-tetrahydro-cyclopropa[c]chromen-1-yl)-urea [Example 19]
EC50 (HIV-1IIIB (wild type); [2]): 10 nM

N#Cc1ccc(NC(=O)N[C@@H]2[C@@H]3COc4cc(F)cc(F)c4[C@@H]32)nc1 (relative stereo) [Example 23, 1-(5-Cyano-pyridin-2-yl)-3-(5,7-difluoro-1,1a,2,7b-tetrahydro-cyclopropa[c]chromen-1-yl)urea]
EC50 (HIV-1IIIB (wild type); [3]): 7 nM

O=C(Nc1ccc(Oc2ccccc2)cn1)N[C@@H]1[C@@H]2COc3c(F)ccc(F)c3[C@@H]21 (relative stereo) [Example 20, +/−cis-1-(4,7-Difluoro-1,1a,2,7b-tetrahydro-cyclopropa[c]chromen-1-yl)-3-(5-phenoxy-pyridin-2-yl)-urea]
EC50 (HIV-1IIIB (wild type); [2]): 7 nM

(+/−)-cis-1-(5-Cyano-3-methyl-pyridin-2-yl)-3-(4,7-difluoro-1,1a,2,7b-tetrahydro-cyclopropa[c]chromen-1-yl)-urea [Example 16]
EC50 (HIV-1IIIB (wild type); [2]): 6 nM

N#Cc1ccc(NC(=O)NC2C3Sc4ccccc4C23)nc1 (racemic) [Example 43, (+/−)cis N-[1a,6b-dihydro-1H-benzo[b]cyclopropa[d]thien-1-yl]-N′-(5-cyano-2-pyridinyl)-urea]
EC50 (HIV-1IIIB (wild type); [3]): 2 nM

(+/−)-cis-1-(4,7-Difluoro-1,1a,2,7b-tetrahydro-cyclopropa[c]chromen-1-yl)-3-(5-ethynyl-pyridin-2-yl)-urea [Example 18]
EC50 (HIV-1IIIB (wild type); [2]): 6 nM

N#Cc1ccc(NC(=O)N[C@@H]2[C@@H]3COc4c(F)ccc(F)c4[C@@H]32)nc1 [Example 30, (−)-cis-1-(5-Cyano-pyridin-2-yl)-3-(4,7-difluoro-1,1a,2,7b-tetrahydro-cyclopropa[c]chromen-1-yl)-urea]
activity of the more slowly eluting isomer, typically negative rotation [1]: particularly active
EC50 (HIV-1IIIB (wild type); [3]): 3 nM

O=C(Nc1ccc(Cl)cn1)N[C@H]1C2c3c(F)ccc(F)c3OC[C@H]21 (single isomer, unassigned; (-)) [Example 31, (−) cis-1-(5-Chloro-pyridin-2-yl)-3-(4,7-difluoro-1,1a,2,7b-tetrahydro-cyclopropa[c]chromen-1-yl)-urea]
activity of the more slowly eluting isomer, typically negative rotation [1]: particularly active
EC50 (HIV-1IIIB (wild type); [3]): 2.5 nM

N#Cc1ccc(NC(=O)N[C@@H]2[C@@H]3COc4c(Br)ccc(F)c4[C@@H]32)nc1 [Example 24, cis-1-(4-Bromo-7-fluoro-1,1a,2,7b-tetrahydro-cyclopropa[c]chromen-1-yl)-3-(5-cyano-pyridin-2-yl)-urea]
EC50 (HIV-1IIIB (wild type); [3]): 20 nM

N#Cc1ccc(NC(=O)NC2C3COc4c(Cl)ccc(F)c4C32)nc1 (racemic) [Example 7, (±)-cis-1-(5-Cyano-pyridin-2-yl)-3-(7-fluoro-4-chloro-1,1a,2,7b-tetrahydro-cyclopropa[c]chromen-1-yl)-urea]
EC50 (HIV-1IIIB (wild type); [2]): 7 nM

N#Cc1ccc(NC(=O)N[C@@H]2[C@@H]3COc4c(Cl)ccc(Cl)c4[C@@H]32)nc1 [Example 33, +/−-cis-N-(5-cyano-2-pyridinyl)-N′-(4,7-dichloro-1,1a,2,7b-tetrahydrocyclopropa[c]chromen-1-yl)urea]
EC50 (HIV-1IIIB (wild type); [3]): 9 nM
